Data published in patent publication US20130122113A1, “ANTITUMORAL COMBINATION COMPRISING OMBRABULIN, A TAXANE DERIVATIVE AND A PLATINUM DERIVATIVE” (SANOFI, priority 2010, published 2013).

Columns and labels:
clinical = test: clinical
Method: Blood samples for pharmacokinetic analysis were obtained from all patients on Day 1, 2 and 3 at Cycle 1.
A series of 2-mL blood samples were collected in heparinized (lithium heparinate) tubes as follows: • immediately prior to the end of infusion; • at 5, 10, 25, 45 and 60 minutes post infusion; • at 2, 4, 6, 8, 10 and 24 hours post infusion (i.e a total of 24 mL of blood).

[1] = Phase I dose escalation study of ombrabulin with platinum salts and taxanes every 3 weeks: DLT, MAD, RD, TEAE; assay type: in vivo, patients
Method: Dose Limiting Toxicity (DLT) at cycle 1.
Two groups of patients will be treated: one with docetaxel-cisplatin doublet (group 1) and the second with paclitaxel-carboplatin doublet (group 2), both in combination with ombrabulin.
The combination will be started with the following schedule (schedule A) for group 1:
Day 1: ombrabulin as a 30 minutes i.v. infusion immediately followed by 120 minutes i.v. infusion of cisplatin, and
Day 2: docetaxel administered as a 60 minutes i.v. infusion 24 hours apart ombrabulin infusion end and for the first 4 dose levels (I, II, III, IV).
Cohorts of 3 or 6 patients will receive escalating doses of ombrabulin (15.5, 20 and 25 mg/m^2) with a fixed dose of cisplatin at 75 mg/m^2 on Day 1, followed by docetaxel on Day 2, given either at 60 mg/m^2 for the ombrabulin doses of 15.5 and 20 mg/m^2 or at 75 mg/m^2 for the ombrabulin doses of 20 and 25 mg/m^2.
Taking into consideration the recommended dose of the combination ombrabulin and cisplatin administered the same day (25 mg/m^2 and 75 mg/m^2 respectively) every 3 weeks, after dose level IV, even if MAD not reached at this dose level, dose escalation of ombrabulin will be stopped and the combination will be administered with the following schedule (schedule B) in the 2 groups:
Day 1: ombrabulin as a 30 minutes i.v. infusion, and
Group 1: docetaxel administered as a 60 minutes i.v. infusion followed by cisplatin as a 120 minutes i.v. infusion, 24 hours apart ombrabulin infusion end.
Group 2: paclitaxel administered as a 180 minutes i.v. infusion followed by carboplatin as a 30 minutes i.v. infusion, 24 hours apart ombrabulin infusion end.
Cohorts of 3 or 6 patients will be screened and treated at each dose level. When the first three patients of a cohort have completed the first cycle, i.e. should have received at least one treatment course and should have been observed for acute toxicity for at least a 3-week follow-up period (or shorter period provided that a DLT has been observed), dose escalation strategy will be as follows: […]

[2] = cited from earlier work
[3] = ombrabulin 15.5 mg/m^2, 3 patients, cycle 1, mean (CV)
[4] = ombrabulin 20 mg/m^2, 26 patients, cycle 1, mean (CV)
[5] = ombrabulin 25 mg/m^2, 12 patients, cycle 1, mean (CV)
[6] = ombrabulin 30 mg/m^2, 6 patients, cycle 1, mean (CV)
[7] = ombrabulin 35 mg/m^2, 5 patients, cycle 1, mean (CV)
[8] = ombrabulin, Overall (15.5-35 mg/m^2), 52 patients, cycle 1, mean (CV)
[9] = ombrabulin, Overall (15.5-35 mg/m^2), 52 patients, cycle 1, mean (CV), listed as Ombrabulin

For `COc1ccc(/C=C\c2cc(OC)c(OC)c(OC)c2)cc1N` [ombrabulin metabolite, (Z)-1-(3-amino-4-methoxyphenyl)-2-(3,4,5-trimethoxyphenyl)ethene], the “Metabolite exposure relative to ombrabulin” value (clinical; human, in vivo) was “about 2 fold”.

In the case of `COc1ccc(/C=C\c2cc(OC)c(OC)c(OC)c2)cc1NC(=O)[C@@H](N)CO` [ombrabulin, (Z)-N-[2-methoxy-5-[2-(3,4,5-trimethoxyphenyl)vinyl]phenyl]-L-serinamide], the maximum administered dose ([1]; Cohort II: Ob d1, C75/D75 d2, 19 pts) is reported as 35 mg/m^2, the maximum administered dose ([1]; Cohort III: Ob d1, CbAUC5/P175 d2, 18 pts) is reported as 35 mg/m^2 and the maximum administered dose ([1]; Cohort IV: Ob d1, CbAUC6/P200 d2, 19 pts) is reported as 35 mg/m^2. It also gave an AUC (clinical; human, in vivo, 15.5 mg/m2) of 276 ng·h/mL, an AUC(0-t) (clinical; human, in vivo, 15.5 mg/m2) of 274 ng·h/mL and a Cmax (clinical; human, in vivo, 15.5 mg/m2) of 712 ng/mL. It also gave a Tmax (clinical; human, in vivo, 15.5 mg/m2) of 28.8 min, an AUC (clinical; human, in vivo, 20 mg/m2) of 353 ng·h/mL and an AUC(0-t) (clinical; human, in vivo, 20 mg/m2) of 351 ng·h/mL. The Cmax (clinical; human, in vivo, 20 mg/m2) was 861 ng/mL, the Tmax (clinical; human, in vivo, 20 mg/m2) was 28.8 min and the AUC (clinical; human, in vivo, 25 mg/m2) was 383 ng·h/mL. For the same molecule, the AUC(0-t) (clinical; human, in vivo, 25 mg/m2) was 381 ng·h/mL, the Cmax (clinical; human, in vivo, 25 mg/m2) was 973 ng/mL and the Tmax (clinical; human, in vivo, 25 mg/m2) was 29.4 min. For the same molecule, the AUC (clinical; human, in vivo, 30 mg/m2) was 510 ng·h/mL, the AUC(0-t) (clinical; human, in vivo, 30 mg/m2) was 508 ng·h/mL and the Cmax (clinical; human, in vivo, 30 mg/m2) was 1170 ng/mL. The Tmax (clinical; human, in vivo, 30 mg/m2) was 32.4 min, the AUC (clinical; human, in vivo, 35 mg/m2) was 493 ng·h/mL and the AUC(0-t) (clinical; human, in vivo, 35 mg/m2) was 491 ng·h/mL. For the same molecule, the Cmax (clinical; human, in vivo, 35 mg/m2) was 1270 ng/mL, the Tmax (clinical; human, in vivo, 35 mg/m2) was 30 min and the half-life (clinical; human, in vivo, t1/2Z (terminal elimination half-life), ombrabulin, Overall (15.5-35 mg/m^2), 52 patients, cycle 1, mean (CV)) was 17 min. For the same molecule, the “conversion to its active metabolite” value (clinical; in patients after i.v. infusion) was “rapidly converted”, the Vss (clinical; [3]) was 18.2 (32) L/m^2 and the t1/2Z (clinical; [3]) was 20.9 (76) min. The CL (clinical; [4]) was 64.6 (42) L/h/m^2, the Vss (clinical; [4]) was 22.0 (57) L/m^2 and the t1/2Z (clinical; [4]) was 17.7 (50) min. The CL (clinical; [5]) was 80.1 (49) L/h/m^2, the Vss (clinical; [5]) was 27.2 (76) L/m^2 and the t1/2Z (clinical; [5]) was 15.3 (37) min. The CL (clinical; [6]) was 63.4 (33) L/h/m^2, the Vss (clinical; [6]) was 24.3 (37) L/m^2 and the t1/2Z (clinical; [6]) was 18.5 (65) min. The CL (clinical; [7]) was 95.7 (63) L/h/m^2, the Vss (clinical; [7]) was 32.8 (78) L/m^2 and the t1/2Z (clinical; [7]) was 14.3 (28) min. For the same molecule, the CL (clinical; [8]) was 72.9 (23) L/h/m^2, the Vss (clinical; [8]) was 25.0 (33) L/m^2 and the “t1/2Z (terminal elimination half-life)” value (clinical; [8]) was 17.3 (15) min. The CL (clinical; [9]) was 72.9 L/h/m^2, the Vss (clinical; [9]) was 25.0 L/m^2 and the “recommended dose in monotherapy” value ([2]; ombrabulin monotherapy) was 50 mg/m^2. The “recommended dose of ombrabulin in combination with cisplatin” value ([2]; with cisplatin 75 mg/m^2 administered the same day, every 3 weeks) was 25 mg/m^2 and the “recommended dose of ombrabulin in bi-therapy with docetaxel” value ([2]; with docetaxel 75 mg/m^2, on-going phase I trial) was 35 mg/m^2.
